Laboratory results: patent US9403873B2, “Peptides targeting receptor activator of nuclear factor-κB (RANK) and their applications” (UNIVERSITE DE NANTES, priority 2011, dated 2016)
Entries after “also recorded” stand apart in the source; their conditions may differ. Ends that are not written are not given here.

Tests used:
[1] = system: ovariectomized C57BL/6 mice; assay: Ovariectomy-induced bone loss in mice, micro-CT of tibiae and L4 vertebrae; assay type: in vivo, mouse; details: 35 days
Description: Eight-week-old ovariectomized (OVX) female C57BL6 and non-ovariectomized control mice were purchased from Janvier (Le Genest Saint Ilsle, France). Mice were housed under pathogen-free conditions at the Experimental Therapy Unit (Faculty of Medicine, University of Nantes, France), and animal care and experimental protocols were approved by the French Ministry of Research and were done in accordance with the institutional guidelines of the French Ethical Committee and under the supervision of authorized investigators. After recovery from OVX surgery for 7 days and acclimation, the mice were randomly divided into treatment groups receiving daily subcutaneous injections of a peptide and a control group receiving daily injections of the vehicle (PBS) only. Non-ovariectomized or sham-operated mice were included in the studies as healthy controls. Three experimental protocols were established. Protocol 1: Ovariectomized mice received daily s.c. injections of 10 mg/kg body weight Pep8 (Pep8, n=8) or vehicle only (OVX, n=8). Non-ovariectomized (NOV, n=8) mice served as normal controls. Protocol 2: Ovariectomized mice were randomly divided into four groups (n=8), receiving daily treatments with pegylated Pep8 (Pep8-NPEG5) at 10 mg/kg or 2.5 mg/kg, or unpegylated Pep8 at a dose of 10 mg/kg/d, or the vehicle only. Sham-operated mice (n=5) served as healthy controls. Protocol 3: Ovariectomized mice receiving daily treatments with pegylated Pep8 (Pep8-NPEG8) at 10 mg/kg or 2.5 mg/kg, as described before, or unpegylated Pep8 at a lower dose of 2.5 mg/kg/d, or the vehicle only. Sham-operated mice (n=8) served as healthy controls.
(§1) During the experimental period, the body weight of the mice was monitored. […] After treatment for five weeks, mice were anesthetized with isoflurane (2%, 1 L/min) and sacrificed by cervical dislocation. Lumbar vertebrae and tibiae were collected for micro-CT analysis and stored at 4° C. in 4% paraformaldehyde until further analysis. Additionally, internal organs (heart, liver, lungs, kidneys, spleen, intestines and thymus) of some mice (n=3 per group) were harvested and stored for toxicity screening.
Analysis of architectural variables of tibiae and vertebrae of mice was performed using the high-resolution X-ray micro-CT system for small animal imaging SkyScan-1072 (SkyScan, Belgium). After scanning, the image data were transferred to a workstation and the proximal tibiae and the fourth lumbar vertebrae (L4) were rendered for 3-D display and calculation of the structural indices (Parfitt et al. 1987) using the SkyScan analysis system (CT-analyser, CT-volume, SkyScan). For trabecular bone parameters in tibiae, transverse CT slices were obtained in the region of interest in the axial direction from the trabecular bone ca. 0.1 mm below the growth plate to the mid-femur. Contours were defined and drawn close to the cortical bone. The trabecular bone was then removed and analyzed separately. Fifty slices (1 mm) at approximately […] distal to the growth plate of the proximal ends of the tibiae were used for analysis. […] The threshold level for the measurements was set at 55 for the analyses. The analysis of the specimens involved the following bone measurements: bone volume fraction (BV/TV, %), trabecular number (TbN), trabecular thickness (TbTh) and trabecular spacing (TbSp).

[2] = system: ovariectomized C57BL/6 mice; assay: Toxicity in ovariectomized mice (body weight, organ histology); assay type: in vivo, mouse; details: 10 mg/kg/day
Experimental: as §1
After sacrifice, organs were conserved and fixed in 4% PFA at 4° C., and embedded in paraffin. Sections (4 μm) were cut and stained with hematoxylin and eosin (Lamoureux et al. 2009, Baud′Huin et al. 2010). General morphology of organs was evaluated on each section using a DMRXA microscope (Leica, Nussloch, Germany).

[3] = Stability of the polypeptide under NMR conditions in phosphate buffer; assay type: physicochemical; details: without protein, 2 weeks
Experimental: NMR experiments were run at 500.13 MHz for ^1H on a Bruker AVANCE 500 spectrometer with a Linux PC workstation, using standard 5 mm or Shigemi 3 mm tubes with susceptibility matched to solvent ^2H2O/Water sample tubes. The spectra of the polypeptide Pep8 at 0.1, 0.2, 0.4 or 1 mM sample concentrations were recorded in 50 mM sodium phosphate buffer at pH 7.4, prepared in 95% H2O and 5% ^2H2O. Two-dimensional NMR spectra were recorded in the phase-sensitive mode using the States—TPPI method (States et al. 1982). All experiments were carried out using the WATERGATE pulse sequence for water suppression (Piotto et al. 1992) or using the excitation sculpting water suppression (Hwang et al. 1995) to eliminate solvent signal in H2O/^2H2O 95:5 solution. The two-dimensional COSY, TOCSY and NOESY spectra were recorded at 280 K. TOCSY spectra were recorded using a MLEV-17 spin-lock sequence (Bax et al. 1985) with a mixing time (τm) of 35 and 70 ms, respectively. 2D NOESY experiments were recorded at a mixing time (τm) of 100, 200 or 500 ms. The heteronuclear spectra ^1H-^13C HSQC were recorded at 280 K in the same conditions. […] Transferred nuclear Overhauser effect (TRNOESY) spectra of Pep8 with RANK receptor-Fc protein were recorded using a mixing time (Tm) of 100, 200 or 500 ms.

[4] = 10 mg/kg/day s.c., vs vehicle-treated OVX mice

In the case of NVLKLCSGE [Pep8, NVLKLCSGE], the “protection against OVX-induced trabecular bone loss (μCT, tibiae)” value ([1]; 2.5 mg/kg/d s.c.) is reported as “less efficient”, the “trabecular BV/TV and TbN, tibiae” value ([1]; 2.5 mg/kg/d, vs vehicle) is reported as “only slightly, but not significantly increasing” and the “protection against OVX-induced trabecular bone loss (μCT)” value ([1]; 10 mg/kg/d s.c.) is reported as “prevented the loss of trabecular bone; also recorded: overall increase in trabecular bone density”. The “increase of TbN, proximal tibia” value [1, 4] was 71%, the “increase of TbTh, proximal tibia” value [1, 4] was 14% and the “increase of trabecular BV/TV, proximal tibia” value [1, 4] was 93%. The “TbS, proximal tibia” value ([1]; 10 mg/kg/day s.c., vs vehicle-treated mice) was “decline”, the “TbN, lumbar vertebrae” value ([1]; 10 mg/kg/day) was “increased” and the “TbS, lumbar vertebrae” value ([1]; 10 mg/kg/day) was “reduced”. For the same sequence, the “TbTh, lumbar vertebrae” value ([1]; 10 mg/kg/day, vs OVX control mice) was “slightly, but not statistically significantly increased”, the “vertebral trabecular BV/TV” value ([1]; lumbar vertebrae, 10 mg/kg/day) was “lower in OVX than Pep8-treated mice” and the “histopathological evaluation of major organs” value ([2]; 5 weeks, heart, lungs, liver, kidneys, spleen, skin) was “No histomorphological difference; also recorded: no toxic effects”. For the same sequence, the “effect on body weight in OVX mice” value ([2]; 35 days) was “no effect” and the “stability under experimental NMR conditions” value [3] was “remained stable”.
